For one assay, the system named is S. aureus T17. The assay can be described thus: Minimum inhibitory concentration (MIC), biphenomycin-resistant S. aureus T17. The format is cell-based, Staphylococcus aureus. Conditions: Staphylococcus aureus; biphenomycin-resistant S. aureus T17. The procedure: (§1) The minimum inhibitory concentration (MIC) is the minimum concentration of an antibiotic with which the growth of a test microbe is inhibited over 18-24 h. The inhibitor concentration can in these cases be determined by standard microbiological methods (see, for example, The National Committee for Clinical Laboratory Standards. Methods for dilution antimicrobial susceptibility tests for bacteria that grow aerobically; approved standard-fifth edition. NCCLS document M7-A5 [ISBN 1-56238-394-9]. NCCLS, 940 West Valley Road, Suite 1400, Wayne, Pa. 19087-1898 USA, 2000). The test substances are thereby initially provided in 1:2 dilution series into 96-well round-bottom microtiter plates (Greiner) double-concentrated in 50 μl of test medium. The aerobically growing test microbes (e.g. staphylococci and enterococci), which are incubated overnight on Columbia blood agar plates (Becton-Dickinson), are, after resuspension in 0.9% NaCl, adjusted to a microbe count of about 5×10^7 microbes/ml and then diluted 1:150 in cation-adjusted MH medium (test medium). 50 μL of this suspension are pipetted onto the test preparations provided in the microtiter plates. The cultures are incubated at 37° C. for 18-24 hours. For microaerophilically growing microbes (e.g. streptococci), 2% lysed horse blood in the final concentration is added to the medium and the cultures are incubated in the presence of 5% CO2. The lowest substance concentration in each case at which no visible bacterial growth occurs any longer is defined as the MIC and is reported in μg/ml.
(§2) The minimum inhibitory concentration (MIC) is the minimum concentration of an antibiotic with which the growth of a test microbe is inhibited over 18-24 h. The inhibitor concentration can in these cases be determined by standard microbiological methods (see, for example, The National Committee for Clinical Laboratory Standards. Methods for dilution antimicrobial susceptibility tests for bacteria that grow aerobically; approved standard-fifth edition. NCCLS document M7-A5 [ISBN 1-56238-394-9]. NCCLS, 940 West Valley Road, Suite 1400, Wayne, Pa. 19087-1898 USA, 2000). The MIC of the compounds of the invention is determined in the liquid dilution test on the 96-well microtiter plate scale. The bacterial microbes are cultivated in a minimal medium (18.5 mM Na2HPO4, 5.7 mM KH2PO4, 9.3 mM NH4Cl, 2.8 mM MgSO4, 17.1 mM NaCl, 0.033 μg/ml thiamine hydrochloride, 1.2 μg/ml nicotinic acid, 0.003 μg/ml biotin, 1% glucose, 25 μg/ml of each proteinogenic amino acid with the exception of phenylalanine; [H.-P. Kroll; unpublished]) with the addition of 0.4% BH broth (test medium). In the case of Enterococcus faecium L4001, heat-inactivated fetal calf serum (FCS; GibcoBRL, Germany) is added to the test medium in a final concentration of 10%. Overnight cultures of the test microbes are diluted to an OD578 of 0.001 (to 0.01 in the case of enterococci) in fresh test medium, and incubated 1:1 with dilutions of the test substances (1:2 dilution steps) in test medium ([…]). The cultures are incubated at 37° C. for 18-24 hours; enterococci in the presence of 5% CO2.
(§3) The lowest substance concentration in each case at which no visible bacterial growth occurs any longer is defined as the MIC.
(§4) The minimum inhibitory concentration (MIC) is the minimum concentration of an antibiotic with which the growth of a test microbe is inhibited over 18-24 h. The inhibitor concentration can in these cases be determined by standard microbiological methods with modified medium in an agar dilution test (see, for example, The National Committee for Clinical Laboratory Standards. Methods for dilution antimicrobial susceptibility tests for bacteria that grow aerobically; approved standard-fifth edition. NCCLS document M7-A5 [ISBN 1-56238-394-9]. NCCLS, 940 West Valley Road, Suite 1400, Wayne, Pa. 19087-1898 USA, 2000). The bacterial microbes are cultivated on 1.5% agar plates which contain 20% defibrinated horse blood. […]

Assay [1] has as its target S. aureus 133 Translation. The experiment in a line: S. aureus in vitro transcription-translation assay (firefly luciferase, S30 extract). The format is biochemical. Conditions: 50% inhibition of the translation of firefly luciferase. The source says:
For the construction of a reporter plasmid which can be used in an in vitro transcription-translation assay from S. aureus the plasmid pBESTluc (Promega Corporation, USA) is used. The E. coli tac promoter present in this plasmid in front of the firefly luciferase is replaced by the capA1 promoter with corresponding Shine-Dalgarno sequence from S. aureus. The primers CAPFor 5′-[…]-[…] GCCA-3′ and CAPRev 5′-[…]-3′ are used for this. The primer CAPFor contains the capA1 promoter, the ribosome binding site and the 5′ region of the luciferase gene. After PCR using pBESTluc as template it is possible to isolate a PCR product which contains the firefly luciferase gene with the fused capA1 promoter. This is, after restriction with ClaI and HindIII, ligated into the vector pBESTluc which has likewise been digested with ClaI and HindIII. The resulting plasmid pla can be replicated in E. coli and be used as template in the S. aureus in vitro transcription-translation test.
Six litres of BHI medium are inoculated with a 250 ml overnight culture of an S. aureus Strain and allowed to grow at 37° C. until the OD600 nm is 2-4. The cells are harvested by centrifugation and washed in 500 ml of cold buffer A (10 mM Tris acetate, pH 8.0, 14 mM magnesium acetate, 1 mM DTT, 1 M KCl). After renewed centrifugation, the cells are washed in 250 ml of cold buffer A with 50 mM KCl, and the resulting pellets are frozen at −20° C. for 60 min. The pellets are thawed on ice in 30 to 60 min and taken up to a total volume of 99 ml in buffer B (10 mM Tris acetate, pH 8.0, 20 mM magnesium acetate, 1 mM DTT, 50 mM KCl). 1.5 ml portions of lysostaphin (0.8 mg/ml) in buffer B are provided in 3 precooled centrifuge cups and each mixed with 33 ml of the cell suspension. The samples are incubated at 37° C., shaking occasionally, for 45 to 60 min, before 150 μl of a 0.5 M DTT solution are added. The lysed cells are centrifuged at 30 000×g and 4° C. for 30 min. The cell pellet is taken up in buffer B and then centrifuged again under the same conditions, and the collected supernatants are combined. The supernatants are centrifuged again under the same conditions, and 0.25 volumes of buffer C (670 mM Tris acetate, pH 8.0, 20 mM magnesium acetate, 7 mM Na3 phosphoenolpyruvate, 7 mM DTT, 5.5 mM ATP, 70 μM amino acids (complete from Promega), 75 μg of pyruvate kinase (Sigma, Germany)/ml are added to the upper ⅔ of the supernatant. The samples are incubated at 37° C. for 30 min. The supernatants are dialysed against 2 l of dialysis buffer (10 mM Tris acetate, pH 8.0, 14 mM magnesium acetate, 1 mM DTT, 60 mM potassium acetate) in a dialysis tube with a 3500 Da cut-off with one buffer change at 4° C. overnight. The dialysate is concentrated to a protein concentration of about 10 mg/ml by
covering the dialysis tube with cold PEG 8000 powder (Sigma, Germany) at 4° C. The S30 extracts can be stored in aliquots at −70° C.
The inhibition of protein biosynthesis of the compounds can be shown in an in vitro transcription-translation assay. The assay is based on the cell-free transcription and translation of firefly luciferase using the reporter plasmid pla as template and cell-free S30 extracts obtained from S. aureus. The activity of the resulting luciferase can be detected by luminescence measurement.
The amount of S30 extract or plasmid pla to be employed must be tested anew for each preparation in order to ensure an optimal concentration in the test. […] of the substance to be tested, dissolved in 5% DMSO, are introduced into an MTP. Then […] of a suitably concentrated plasmid solution pla are added. […]

Another assay concerns S. aureus 133. The assay can be described thus: Minimum inhibitory concentration (MIC), S. aureus 133. Type of assay: cell-based, Staphylococcus aureus. The method, then: as §1, §2, §3, §4
For another assay, the system named is E. faecium L4001. The experiment in a line: Minimum inhibitory concentration (MIC), E. faecium L4001. The format is cell-based, Enterococcus faecium. The conditions noted are these: Enterococcus faecium. The method, then: as §2, §3
Setting [2] is: Staphylococcus aureus, 133; read-out: MIC S. aureus 133.
Where [3] appears, read: E. faecium L4001, 10% FCS in test medium, read-out: MIC E. faecium L4001.
Where [4] appears, read: Staphylococcus aureus, 133, read-out: MIC S. aureus 133.
Where [5] appears, read: L4001, read-out: MIC E. faecium L4001.

Structures are written as SMILES. In brackets after ≈: the same amount, converted by molar mass. Counter-ions that a name gives are not always drawn. Like-named read-outs stand apart in the source and are kept apart here. Some results are limits rather than exact numbers.

For orientation: MIC means the lowest concentration found to suppress growth. By IC50 is commonly meant the concentration at which inhibition is half-maximal.

On to `NCCC[C@H](N)CNC(=O)C[C@H](CCCN)NC(=O)[C@@H]1Cc2cccc(c2)-c2ccc(O)c(c2)C[C@H](N)C(=O)N[C@@H](CCCN)C(=O)N1` [Example 19, (8S,11S,14S)-14-Amino-N-[(1S)-4-amino-1-(2-{[(2S)-2,5-diaminopentyl]amino}-2-oxoethyl)butyl]-11-(3-aminopropyl)-17-hydroxy-10,13-dioxo-9,12-diazatricyclo[14.3.1.1^2,6]henicosa-1 (20),2(21),3,5,16,18-hexaene-8-carboxamide penta(hydrotrifluoroacetate)], for which the MIC amounted to 1 µg/mL (≈ 1.5 µM) in the assay with S. aureus T17, 1 µg/mL (≈ 1.5 µM) in the assay on S. aureus 133 (setting [2]) and 16 µg/mL (≈ 24 µM) with E. faecium L4001 (setting [3]). Moreover, the IC50 in assay [1] is 100 nM.
As for `NCCC[C@H](N)CNC(=O)[C@H](CCCN)NC(=O)[C@@H]1Cc2cccc(c2)-c2ccc(O)c(c2)C[C@H](N)C(=O)N[C@@H](CCCN)C(=O)N1` [Example 3, (8S,11S,14S)-14-Amino-N-[(s)-4-amino-1-({[(25)-2,5-diaminopentyl]amino}carbonyl)butyl]-11-(3-aminopropyl)-17-hydroxy-10,13-dioxo-9,12-diazatricyclo[14.3.1.1^2,6]henicosa-1(20),2(21),3,5,16,18-hexaene-8-carboxamide pentahydrochloride], the results for the minimum inhibitory concentration (MIC) against S. aureus T17, with S. aureus 133 (setting [2]) and in the assay with E. faecium L4001 (setting [3]) were 2 µg/mL, 2 µg/mL and 16 µg/mL, respectively. Also, in assay [1], the half-inhibitory concentration (IC50) was 200 nM.
As to `NCCC[C@H](NC(=O)[C@@H]1Cc2cccc(c2)-c2ccc(O)c(c2)C[C@H](N)C(=O)N[C@@H](C[C@@H](O)CN)C(=O)N1)C(=O)NCCN` [Example 1, (8S,11S,14S)-14-Amino-N-((1S)-4-amino-1-{[(2-aminoethyl)amino]carbonyl)}butyl)-11-[(2R)-3-amino-2-hydroxypropyl]-17-hydroxy-10,13-dioxo-9,12-diazatricyclo[14.3.1.1^2,6]-henicosa-1 (20),2(21),3,5,16,18-hexaene-8-carboxamide tetrahydrochloride], the minimum inhibitory concentration (MIC) was determined as 1 µg/mL with S. aureus T17, 0.5 µg/mL in the assay on S. aureus 133 (setting [2]) and 4 µg/mL in the assay with E. faecium L4001 (setting [3]). In assay [1], this molecule showed an IC50 of 70 nM.
Turning to `NCCC[C@H](NC(=O)[C@@H]1Cc2cccc(c2)-c2ccc(O)c(c2)C[C@H](N)C(=O)N[C@@H](CCCN)C(=O)N1)C(=O)NCCC[C@H](N)CC(=O)NCCN` [Example 12, (8S,11S,14S)-14-Amino-N-{(1S)-4-amino-1-[({(4S)-4-amino-6-[(2-aminoethyl)amino]-6-oxohexyl}amino)carbonyl]butyl}-11-(3-aminopropyl)-17-hydroxy-10,13-dioxo-9,12-diazatricyclo[14.3.1.1^2,6]henicosa-1(20),2(21),3,5,16,18-hexaene-8-carboxamide pentahydrochloride], the MIC against S. aureus T17 was 1 µg/mL; in the assay on S. aureus 133 (setting [4]), 1 µg/mL; with E. faecium L4001 (setting [5]), 16 µg/mL.
As to `CN1C(=O)[C@H](C[C@@H](O)CN)NC(=O)[C@@H](N)Cc2cc(ccc2O)-c2cccc(c2)C[C@H]1C(=O)NCCC(=O)NC[C@@H](N)CCCN` [Example 68], the MIC against S. aureus T17 came to 1 µg/mL (≈ 1.56 µM); in the assay on S. aureus 133 (setting [2]), 1 µg/mL (≈ 1.56 µM); in the assay with E. faecium L4001 (setting [3]), 8 µg/mL (≈ 12.5 µM). 200 nM corresponded to half-maximal inhibition in assay [1] (IC50).
Regarding `NCCNC(=O)[C@@H](N)CCCNC(=O)[C@@H]1Cc2cccc(c2)-c2ccc(O)c(c2)C[C@H](N)C(=O)N[C@@H](C[C@@H](O)CN)C(=O)N1` [Example 5, (8S,11S,14S)-14-Amino-N-{(4S)-4-amino-5-[(2-aminoethyl)amino]-5-oxopentyl}-11-[(2R)-3-amino-2-hydroxypropyl]-17-hydroxy-10,13-dioxo-9,12-diazatricyclo[14.3.1.1^2,6]-henicosa-1(20),2(21),3,5,16,18-hexaene-8-carboxamide tetrahydrochloride], the minimal inhibitory concentration (MIC) with S. aureus T17 was 1 µg/mL; with S. aureus 133 (setting [4]) it was 1 µg/mL; in the assay with E. faecium L4001 (setting [5]) it was 2 µg/mL. The molecule further showed a half-maximal inhibitory concentration (IC50) in assay [1] of 200 nM.
For the molecule `NCCC[C@H](N)CNC(=O)C[C@@H](N)CCCNC(=O)[C@H](CCCN)NC(=O)[C@@H]1Cc2cccc(c2)-c2ccc(O)c(c2)C[C@H](N)C(=O)N[C@@H](CCCN)C(=O)N1` [Example 15, (8S,11S,14S)-14-Amino-N-((1S)-4-amino-1-{[((4S)-4-amino-6-{[(2S)-2,5-diaminopentyl]-amino}-6-oxohexyl)amino]carbonyl}butyl)-11-(3-aminopropyl)-17-hydroxy-10,13-dioxo-9,12-diazatricyclo[14.3.1.1^2,6]henicosa-1 (20),2(21),3,5,16,18-hexaene-8-carboxamide hexahydrochloride], the MIC against S. aureus T17 is 2 µg/mL; with S. aureus 133 (setting [4]), 1 µg/mL; in the assay with E. faecium L4001 (setting [5]), greater than 32 µg/mL. The molecule further showed a 50% inhibitory concentration (IC50) in assay [1] of 100 nM.

Values taken from patent publication US20080275018A1, “ANTIBACTERIAL AMIDE-MACROCYCLES V” (AiCuris GmbH & Co. KG, priority 2005, published 2008).
